According to US9604974B2, “Compounds as modulator of JAK-STAT pathway, methods and applications thereof” (UNIVERSITY OF MYSORE, priority 2015, dated 2017):

Assays:
caspase-3 and PARP = experiment: Western blot of procaspase-3 and PARP cleavage; assay type: cell-based, human; details: HepG2, 10 μMol/L CIMO, time dependent
Experimental: FIG. 4 depicts activation of caspase-3 and induction of apoptosis by Compound 1 (CIMO) [A]. HepG2 cells (5×10^5/mL) are treated with 10 μMol/L CIMO for the indicated times, whole-cell extracts are prepared, separated on SDS-PAGE, and subjected to Western Blotting against caspase-3 and PARP antibody. The same blot is stripped and reprobed with Beta actin antibody to show equal protein loading. [B] Tyrosine phosphatase inhibitor-sodium pervanadate reverses the inhibitory effect of Compound 1 (CIMO) on phospho-STAT3. HepG2 cells (5×10^5/mL) are treated with the indicated concentrations of sodium pervanadate and 10 μMol/L CIMO for about 4 hours, after which whole-cell extracts are prepared, resolved on SDS-PAGE gel, electrotransferred onto nitrocellulose membrane, and probed for phospho-STAT3 and STAT3. [C] illustrates the inhibitory activity of Compound 1 (CIMO) on phospho-STAT3 mediated by protein tyrosine phosphatase. […]
To detect STAT3-regulated proteins and PARP, cells (2×10^6/ml) are treated with CIMO for the indicated times as shown in respective FIGS. 3E, 3D and 4A. […] Whole-cell extract protein (30 μg) is resolved on SDS-PAGE, electrotransferred onto a nitrocellulose membrane, blotted with antibodies against survivin, Bcl-2, Bcl-xL, cyclin D1, Bak, Bid, ICAM-1, procaspase-3, and PARP and then detected by chemiluminescence (ECL; GE Healthcare, Little Chalfont, Buckinghamshire, UK).

JAK2 = experiment: Western blot of constitutive phospho-JAK2 in HepG2; assay type: cell-based, human; details: HepG2, 10 μMol/L CIMO
Experimental: FIG. 2 depicts the suppression of phospho-STAT3 by compound 1 (CIMO) in a dose dependent manner [A]. HepG2 cells (5×10^5/mL) are treated with the indicated concentrations of CIMO for 6 hours, after which whole-cell extracts are prepared and resolved on SDS-PAGE gel, electrotransferred onto nitrocellulose membrane, and probed for phospho-STAT3. The same blot is stripped and reprobed with STAT3 antibody to verify equal protein loading. […] HepG2 cells (5×10^5/mL) are treated with the indicated concentrations of AG490 for about 6 hours, after which Western Blotting is done as described for [A]. [C] depicts the suppression of phospho-STAT3 levels by Compound 1 (CIMO) in a time-dependent manner. HepG2 cells (5×10^5/mL) are treated with 10 μMol/L CIMO for the indicated times, after which Western blotting is done as described for [A]. [D] depicts that compound 1 (CIMO) has no effect on phospho-STAT3 (Ser-727) and STAT3 protein expression. […] HepG2 cells (1×10^5/mL) are incubated with or without 10 μMol/L CIMO for about 6 hours and then analyzed for the intracellular distribution of STAT3 by immunocytochemistry. The same slides are counterstained for nuclei with Hoechst (50 ng/mL) for about 5 minutes and analyzed under an fluorescencemicroscope. […]

Compound: COc1ccc(C2CNC(c3cn(Cc4ccc(-c5ccccc5C#N)cc4)c4ccccc34)OC23CCCCC3)cc1 (stereo not drawn) [Compound 1]
- full length PARP / cleaved 85-kDa fragment (caspase-3 and PARP): decline of full length PARP with increase in cleaved 85-kDa fragment
- procaspase-3 activation (caspase-3 and PARP): activation of procaspase-3
- phosphorylation of JAK2 (JAK2): significant inhibition
